According to patent US12180193B2, “Accelerating fibrosarcoma protein degrading compounds and associated methods of use” (Arvinas Operations, Inc., priority 2020, dated 2024):
Like-named read-outs stand apart in the source and are kept apart here.

Key:
BRAF V600E = molecular target: T1, BRAF V600E (Homo sapiens, UniProt P15056, V600E); assay: Cellular assay of target protein degradation, T-Rex 293 cells stably transfected with HA-BRAF_V600E (HA immunofluorescence, high content imaging); format: cell-based
T1 construct: expressed in transfected cells
T1 sequence (P15056 whole entry V600E): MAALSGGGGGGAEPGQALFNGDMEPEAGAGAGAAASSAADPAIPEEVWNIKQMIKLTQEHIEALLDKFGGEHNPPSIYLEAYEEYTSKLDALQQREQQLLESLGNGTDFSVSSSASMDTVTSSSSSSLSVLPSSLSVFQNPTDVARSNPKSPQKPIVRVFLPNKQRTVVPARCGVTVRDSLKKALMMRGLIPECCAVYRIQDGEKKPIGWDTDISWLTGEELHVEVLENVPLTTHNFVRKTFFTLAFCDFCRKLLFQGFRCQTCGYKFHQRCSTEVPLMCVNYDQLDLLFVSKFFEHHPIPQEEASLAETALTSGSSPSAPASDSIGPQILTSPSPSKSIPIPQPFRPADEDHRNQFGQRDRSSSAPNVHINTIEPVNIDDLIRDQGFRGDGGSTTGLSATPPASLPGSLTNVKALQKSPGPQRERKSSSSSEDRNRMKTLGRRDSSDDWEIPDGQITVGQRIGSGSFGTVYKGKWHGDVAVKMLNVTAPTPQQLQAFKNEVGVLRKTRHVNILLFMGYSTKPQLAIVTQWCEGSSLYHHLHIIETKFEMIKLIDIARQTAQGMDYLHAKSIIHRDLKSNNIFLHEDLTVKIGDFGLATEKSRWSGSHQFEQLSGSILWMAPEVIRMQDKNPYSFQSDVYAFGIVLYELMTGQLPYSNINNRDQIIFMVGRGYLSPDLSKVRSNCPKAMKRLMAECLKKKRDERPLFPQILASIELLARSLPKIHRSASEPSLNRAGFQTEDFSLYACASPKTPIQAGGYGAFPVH
In short: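 Doxycycline-induced (1 ng/mL) cells were treated 24 h at 37 °C with compound at 1 μM to 0.1 nM final in 0.1% DMSO. After fixation, permeabilization and blocking, anti-HA staining was imaged by high-content reading; DC50 and Dmax (% of control) were derived.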

BRAF G466V = molecular target: T2, BRAF G466V (Homo sapiens, UniProt P15056, G466V); assay: Cellular assay of target protein degradation, T-Rex 293 cells stably transfected with HA-BRAF G466V (HA immunofluorescence, high content imaging); format: cell-based
T2 construct: expressed in transfected cells
T2 sequence (P15056 whole entry G466V): as the sequence (P15056 whole entry V600E) above, with G466V, E600V counted along it
In short: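 Cells expressing doxycycline-induced (0.75 ng/mL) HA-BRAF G466V were treated with compound at 30 nM to 3 pM in 0.1% DMSO for 24 hours at 37° C. After fixation and permeabilization, HA was immunostained and quantified by high content imaging to derive DC50 and Dmax.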

[1] = half maximal degradation, T-Rex 293 HA-BRAF V600E; read-out: BRaf V600E DC50
[2] = half maximal degradation, T-Rex 293 HA-BRAF G466V; read-out: BRaf G466V DC50
[3] = maximum degradation observed, T-Rex 293 HA-BRAF G466V
[4] = maximum degradation observed, T-Rex 293 HA-BRAF V600E

Compound	DC50 (BRAF V600E; [1]) [nM]	DC50 (BRAF G466V; [2]) [nM]	Dmax (BRAF G466V; [3]) [%]	Dmax (BRAF V600E; [4]) [%]	DC50 (BRAF V600E; read-out: BRaf V600E DC50; half maximal degradation, T-Rex 293 HA-BRAF V600E) [nM]	DC50 (BRAF G466V; read-out: BRaf G466V DC50; half maximal degradation, T-Rex 293 HA-BRAF G466V) [nM]
O=C1CC[C@@H](NC(=O)c2ccc(N3CCC(CN4CC5(C4)CN(c4ccc(-c6cnc7[nH]cc(C(=O)c8c(F)ccc(NS(=O)(=O)N9CC[C@@H](F)C9)c8F)c7c6)cc4)C5)CC3)cc2F)C(=O)N1 [Compound 30, 4-(4-{[6-(4-{3-[2,6-difluoro-3-({[(3R)-3-fluoropyrrolidin-1-yl]sulfonyl}amino)benzoyl]-1H-pyrrolo[2,3-b]pyridin-5-yl}phenyl)-2,6-diazaspiro[3.3]heptan-2-yl]methyl}piperidin-1-yl)-N-[(3R)-2,6-dioxopiperidin-3-yl]-2-fluorobenzamide]	> 500	10 to 30	< 35	–	–	–
O=C1CC[C@H](NC(=O)c2ccc(N3CC4(CN(CC5CCN(c6ccc(-c7cnc8[nH]cc(C(=O)c9c(F)ccc(NS(=O)(=O)N%10CC[C@@H](F)C%10)c9F)c8c7)cc6)CC5)C4)C3)cc2F)C(=O)N1 [Compound 31, 4-(6-{[1-(4-{3-[2,6-difluoro-3-({[(3R)-3-fluoropyrrolidin-1-yl]sulfonyl}amino)benzoyl]-1H-pyrrolo[2,3-b]pyridin-5-yl}phenyl)piperidin-4-yl]methyl}-2,6-diazaspiro[3.3]heptan-2-yl)-N-[(3S)-2,6-dioxopiperidin-3-yl]-2-fluorobenzamide]	5 to 50	< 1	35 to 70	35 to 70	–	–
O=C1CC[C@H](NC(=O)c2ccc(C3CCN(CC4CCN(c5ccc(-c6cnc7[nH]cc(C(=O)c8c(F)ccc(NS(=O)(=O)N9CC[C@@H](F)C9)c8F)c7c6)cc5)CC4)CC3)cc2F)C(=O)N1 [Compound 33, 4-(1-{[1-(4-{3-[2,6-difluoro-3-({[(3R)-3-fluoropyrrolidin-1-yl]sulfonyl}amino)benzoyl]-1H-pyrrolo[2,3-b]pyridin-5-yl}phenyl)piperidin-4-yl]methyl}piperidin-4-yl)-N-[(3S)-2,6-dioxopiperidin-3-yl]-2-fluorobenzamide]	5 to 50	1 to 10	35 to 70	> 70	–	–
O=C1CCC(N2Cc3cc(C4CCN(CC5CCN(c6ccc(-c7cnc8[nH]cc(C(=O)c9c(F)ccc(NS(=O)(=O)N%10CC[C@@H](F)C%10)c9F)c8c7)cc6F)CC5)CC4)ccc3C2=O)C(=O)N1 (stereo partly drawn) [Compound 36, (3R)—N-[3-(5-[4-[4-([4-[2-(2,6-dioxopiperidin-3-yl)-1-oxo-3H-isoindol-5-yl]piperidin-1-yl]methyl)piperidin-1-yl]-3-fluorophenyl]-1H-pyrrolo[2,3-b]pyridine-3-carbonyl)-2,4-difluorophenyl]-3-fluoropyrrolidine-1-sulfonamide]	–	–	35 to 70	35 to 70	5 to 50	< 1
O=C1CC[C@@H](NC(=O)c2ccc(N3CC4(CN(CC5CCN(c6ccc(-c7cnc8[nH]cc(C(=O)c9c(F)ccc(NS(=O)(=O)N%10CC[C@@H](F)C%10)c9F)c8c7)cc6)CC5)C4)C3)cc2F)C(=O)N1 [Compound 37, 4-(6-{[1-(4-{3-[2,6-difluoro-3-({[(3R)-3-fluoropyrrolidin-1-yl]sulfonyl}amino)benzoyl]-1H-pyrrolo[2,3-b]pyridin-5-yl}phenyl)piperidin-4-yl]methyl}-2,6-diazaspiro[3.3]heptan-2-yl)-N-[(3R)-2,6-dioxopiperidin-3-yl]-2-fluorobenzamide]	5 to 50	1 to 10	35 to 70	< 35	–	–
O=C1CC[C@H](N2Cc3cc(N4CCC(CN5CCN(c6ccc(-c7cnc8[nH]cc(C(=O)c9c(F)ccc(NS(=O)(=O)N%10CC[C@@H](F)C%10)c9F)c8c7)cc6)CC5)CC4)c(F)cc3C2=O)C(=O)N1 [Compound 40, (3R)-N-{3-[5-(4-{4-[(1-{2-[(3S)-2,6-dioxopiperidin-3-yl]-6-fluoro-1-oxo-2,3-dihydro-1H-isoindol-5-yl}piperidin-4-yl)methyl]piperazin-1-yl}phenyl)-1H-pyrrolo[2,3-b]pyridine-3-carbonyl]-2,4-difluorophenyl}-3-fluoropyrrolidine-1-sulfonamide]	5 to 50	1 to 10	35 to 70	35 to 70	–	–

More lines, main results first:

DC50 (BRAF V600E; [1]) [nM]	DC50 (BRAF G466V; [2]) [nM]	Dmax (BRAF G466V; [3]) [%]	Dmax (BRAF V600E; [4]) [%]	Compound	DC50 (BRAF V600E; read-out: BRaf V600E DC50; half maximal degradation, T-Rex 293 HA-BRAF V600E) [nM]	DC50 (BRAF G466V; read-out: BRaf G466V DC50; half maximal degradation, T-Rex 293 HA-BRAF G466V) [nM]
< 5	1 to 10	35 to 70	35 to 70	O=C1CCC(N2Cc3cc(C(O)CN4CCN(c5ccc(-c6cnc7[nH]cc(C(=O)c8c(F)ccc(NS(=O)(=O)N9CC[C@@H](F)C9)c8F)c7c6)cc5)CC4)ccc3C2=O)C(=O)N1 (stereo partly drawn) [Compound 32, (3R)-N-(3-{5-[4-(4-{2-[2-(2,6-dioxopiperidin-3-yl)-1-oxo-2,3-dihydro-1H-isoindol-5-yl]-2-hydroxyethyl}piperazin-1-yl)phenyl]-1H-pyrrolo[2,3-b]pyridin-3-carbonyl}-2,4-difluorophenyl)-3-fluoropyrrolidine-1-sulfonamide]	–	–
50 to 500	1 to 10	35 to 70	35 to 70	O=C1CC[C@H](N2Cc3cc(N4CCC(OC5CCN(c6ccc(-c7cnc8[nH]cc(C(=O)c9c(F)ccc(NS(=O)(=O)N%10CC[C@@H](F)C%10)c9F)c8c7)cc6)CC5)CC4)ccc3C2=O)C(=O)N1 [Compound 34, (3R)-N-{3-[5-(4-{4-[(1-{2-[(3S)-2,6-dioxopiperidin-3-yl]-1-oxo-2,3-dihydro-1H-isoindol-5-yl}piperidin-4-yl)oxy]piperidin-1-yl}phenyl)-1H-pyrrolo [2,3-b]pyridine-3-carbonyl]-2,4-difluorophenyl}-3-fluoropyrrolidine-1-sulfonamide]	–	–
5 to 50	1 to 10	> 70	35 to 70	O=C1CC[C@@H](N2Cc3cc(N4CCC(OC5CCN(c6ccc(-c7cnc8[nH]cc(C(=O)c9c(F)ccc(NS(=O)(=O)N%10CC[C@@H](F)C%10)c9F)c8c7)cc6)CC5)CC4)ccc3C2=O)C(=O)N1 [Compound 35, (3R)-N-{3-[5-(4-{4-[(1-{2-[(3R)-2,6-dioxopiperidin-3-yl]-1-oxo-2,3-dihydro-1H-isoindol-5-yl}piperidin-4-yl)oxy]piperidin-1-yl}phenyl)-1H-pyrrolo [2,3-b]pyridine-3-carbonyl]-2,4-difluorophenyl}-3-fluoropyrrolidine-1-sulfonamide]	–	–
5 to 50	< 1	35 to 70	35 to 70	O=C1CC[C@H](N2Cc3cc(/C=C/CN4CC5(C4)CN(c4ccc(-c6cnc7[nH]cc(C(=O)c8c(F)ccc(NS(=O)(=O)N9CC[C@@H](F)C9)c8F)c7c6)cc4)C5)ccc3C2=O)C(=O)N1 [Compound 38, (3R)-N-{3-[5-(4-{6-[(2E)-3-{2-[(3S)-2,6-dioxopiperidin-3-yl]-1-oxo-2,3-dihdyro-1H-isoindol-5-yl}prop-2-en-1-yl]-2,6-diazaspiro[3.3]heptan-2-yl}phenyl)-1H-pyrrolo[2,3-b]pyridine-3-carbonyl]-2,4-difluorophenyl}-3-fluoropyrrolidine-1-sulfonamide]	–	–
5 to 50	< 1	35 to 70	35 to 70	O=C1CC[C@@H](N2Cc3cc(/C=C/CN4CC5(C4)CN(c4ccc(-c6cnc7[nH]cc(C(=O)c8c(F)ccc(NS(=O)(=O)N9CC[C@@H](F)C9)c8F)c7c6)cc4)C5)ccc3C2=O)C(=O)N1 [Compound 39, (3R)-N-{3-[5-(4-{6-[(2E)-3-{2-[(3R)-2,6-dioxopiperidin-3-yl]-1-oxo-2,3-dihydro-1H-isoindol-5-yl}prop-2-en-1-yl]-2,6-diazaspiro[3.3]heptan-2-yl}phenyl)-1H-pyrrolo[2,3-b]pyridine-3-carbonyl]-2,4-difluorophenyl}-3-fluoropyrrolidine-1-sulfonamide]	–	–
> 500	1 to 10	35 to 70	> 70	O=C1CC[C@@H](N2Cc3cc(N4CCC(CN5CCN(c6ccc(-c7cnc8[nH]cc(C(=O)c9c(F)ccc(NS(=O)(=O)N%10CC[C@@H](F)C%10)c9F)c8c7)cc6)CC5)CC4)c(F)cc3C2=O)C(=O)N1 [Compound 41, (3R)-N-{3-[5-(4-{4-[(1-{2-[(3R)-2,6-dioxopiperidin-3-yl]-6-fluoro-1-oxo-2,3-dihydro-1H-isoindol-5-yl}piperidin-4-yl)methyl]piperazin-1-yl}phenyl)-1H-pyrrolo[2,3-b]pyridine-3-carbonyl]-2,4-difluorophenyl}-3-fluoropyrrolidine-1-sulfonamide]	–	–
5 to 50	1 to 10	35 to 70	35 to 70	O=C1CCC(N2Cc3cc(N4CC5(CN(CC#Cc6ccc(-c7cnc8[nH]cc(C(=O)c9c(F)ccc(NS(=O)(=O)N%10CC[C@@H](F)C%10)c9F)c8c7)cc6)C5)C4)ccc3C2=O)C(=O)N1 (stereo partly drawn) [Compound 42, (3R)-N-(3-{5-[4-(3-{6-[2-(2,6-dioxopiperidin-3-yl)-1-oxo-2,3-dihydro-1H-isoindol-5-yl]-2,6-diazaspiro[3.3]heptan-2-yl}prop-1-yn-1-yl)phenyl]-1H-pyrrolo [2,3-b]pyridine-3-carbonyl}-2,4-difluorophenyl)-3-fluoropyrrolidine-1-sulfonamide]	–	–
50 to 500	10 to 30	35 to 70	35 to 70	O=C1CCC(N2Cc3cc(OC4CC5(C4)CN(c4ccc(-c6cnc7[nH]cc(C(=O)c8c(F)ccc(NS(=O)(=O)N9CC[C@@H](F)C9)c8F)c7c6)cc4)C5)ccc3C2=O)C(=O)N1 (stereo partly drawn) [Compound 43, (3R)-N-(3-{5-[4-(6-{[2-(2,6-dioxopiperidin-3-yl)-1-oxo-2,3-dihydro-1H-isoindol-5-yl]oxy}-2-azaspiro[3.3]heptan-2-yl)phenyl]-1H-pyrrolo[2,3-b]pyridine-3-carbonyl}-2,4-difluorophenyl)-3-fluoropyrrolidine-1-sulfonamide]	–	–
